According to US20210395313A1, “PEPTIDE PAC1 ANTAGONISTS” (AMGEN INC., priority 2017, published 2021):
pIC50: −log10 of the molar value. Bridges are numbered along the chain shown (N, C = ends). Where no end group is shown, it is not given here. [ ]: non-standard residue; d: D form. Pra = C#CC[C@H](N)C(=O)O

Assays:
rat PAC1 receptor = molecular target: T1, rat PAC1 receptor (Rattus norvegicus, UniProt P32215); test: LANCE Ultra cAMP accumulation antagonist assay in RG-2 cells; assay type: cell-based;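 further: RG-2 rat glioma cells endogenously expressing PAC1, test peptide preincubated 30 min, then PAC1 agonist added at its EC80 for 15 min, cAMP accumulation read by LANCE Ultra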
T1 construct: SHSY-5Y (human neuroblastoma cell line) and RG-2 (rat glioma cell line) cells endogenously express human and rat PAC1 receptors, respectively; endogenous in cells; host or cells: RG-2 rat glioma cells
T1 sequence (P32215 20-523): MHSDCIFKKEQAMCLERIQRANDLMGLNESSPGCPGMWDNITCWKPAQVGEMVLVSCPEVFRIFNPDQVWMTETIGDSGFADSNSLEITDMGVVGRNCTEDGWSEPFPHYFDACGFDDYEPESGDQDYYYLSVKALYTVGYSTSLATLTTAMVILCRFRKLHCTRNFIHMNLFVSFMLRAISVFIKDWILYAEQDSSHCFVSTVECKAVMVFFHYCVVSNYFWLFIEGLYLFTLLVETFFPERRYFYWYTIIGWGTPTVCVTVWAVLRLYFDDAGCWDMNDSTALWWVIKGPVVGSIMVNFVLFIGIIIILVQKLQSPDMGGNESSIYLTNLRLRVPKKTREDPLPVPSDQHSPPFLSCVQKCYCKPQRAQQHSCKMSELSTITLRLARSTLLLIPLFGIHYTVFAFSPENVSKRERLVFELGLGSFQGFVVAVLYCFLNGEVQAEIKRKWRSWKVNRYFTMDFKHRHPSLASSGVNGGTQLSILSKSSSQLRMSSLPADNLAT

human PAC1 receptor = molecular target: T2, human PAC1 receptor (Homo sapiens, UniProt P41586); test: LANCE Ultra cAMP accumulation antagonist assay in SHSY-5Y cells; assay type: cell-based;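 further: inhibition of cAMP accumulation evoked by PAC1 agonist at its EC80 in SHSY-5Y cells endogenously expressing receptor, 30 min preincubation then 15 min agonist, TR-FRET readout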
T2 construct: SHSY-5Y (human neuroblastoma cell line) and RG-2 (rat glioma cell line) cells endogenously express human and rat PAC1 receptors, respectively; endogenous in cells; host or cells: SHSY-5Y human neuroblastoma cells
T2 sequence (P41586 21-468): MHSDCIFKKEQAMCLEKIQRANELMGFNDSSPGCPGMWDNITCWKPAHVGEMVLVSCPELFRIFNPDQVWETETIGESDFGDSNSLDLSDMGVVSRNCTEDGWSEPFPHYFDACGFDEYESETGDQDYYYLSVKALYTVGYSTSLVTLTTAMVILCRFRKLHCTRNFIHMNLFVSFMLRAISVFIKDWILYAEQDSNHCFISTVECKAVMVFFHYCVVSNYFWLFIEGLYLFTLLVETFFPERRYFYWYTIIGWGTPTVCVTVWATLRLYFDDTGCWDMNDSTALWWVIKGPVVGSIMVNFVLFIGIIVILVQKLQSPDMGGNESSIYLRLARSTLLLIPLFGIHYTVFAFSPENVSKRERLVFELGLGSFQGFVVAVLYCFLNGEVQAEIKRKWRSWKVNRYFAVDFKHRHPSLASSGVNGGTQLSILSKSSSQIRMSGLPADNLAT
Experimental: In order to determine the potency of peptide antagonists at the PAC1 receptor, functional cAMP accumulation assays using LANCE Ultra cAMP assay kit to measure the agonist and antagonist activity of PAC1 peptides were used. SHSY-5Y (human neuroblastoma cell line) and RG-2 (rat glioma cell line) cells endogenously express human and rat PAC1 receptors, respectively. Agonist activity of PAC1 peptides was tested by incubating with SHSY-5Y at 2,000 cells per well or RG-2 at 5,000 cells per well for 15 minutes at room temperature. PAC1 receptor agonist PACAP38 or maxadilan was included as a positive control. The reaction was stopped by adding detection mixture, europium (Eu) chelate-labeled cAMP tracer and cAMP-specific monoclonal antibodies labeled with the ULight™ dye, to all wells followed by a 60-minute incubation at room temperature. The assay plates were then read on an EnVision instrument at an emission wavelength of 665 and 615 nm and data were analyzed using Genedata Screener or GraphPad Prism software. A similar procedure was used in the antagonist assays by using a fixed concentration of PAC1 agonist. The concentrations of agonists were chosen based on their ECK) values at PAC1 receptors in SHSY-5Y or RG-2 cells. SHSY-5Y or RG-2 cells were added into 96-well half-area white plates. Serially diluted PAC1 peptides at ten concentrations were added and incubated for 30 minutes at room temperature. PAC1 agonist at EC80 concentration was then added and further incubated for 15 minutes at room temperature. The reaction was stopped by adding detection mixture to all wells followed by a 60-minute incubation at room temperature. The assay plates were read and analyzed the same way as that of agonist assay. Cells, agonists, and PAC1 peptides were prepared in freshly made assay buffer (F-12, 0.5 mM IBMX, 0.1 or 0.4% BSA (pH 7.4)). Detection mixture was made by mixing a 1/50 dilution of the Eu-cAMP tracer stock solution in cAMP Detection Buffer and a 1/150 dilution of the ULight-anti-cAMP stock solution in cAMP Detection Buffer. Europium (Eu) chelate-labeled cAMP tracer, cAMP-specific monoclonal antibodies labeled with the ULight™ dye, BSA, and detection buffer were provided in LANCE Ultra cAMP Kit from PerkinElmer

| Substance | pIC50 (rat PAC1 receptor) | pIC50 (human PAC1 receptor) |
| --- | --- | --- |
| CDATCQFRKAIDDCDRQAHHSNVPGSVFKACMKQKKKEWKAN (disulfide 1-5, 14-31) [compound 159] | 9.00 to 11.00 | 7.00 to 9.00 |
| CDATCQFRKAIDDCDRQAHHSNVPGSVFKACMKQKKKEWKAN-NH2 (disulfide 1-5, 14-31) [compound 158] | 9.00 to 11.00 | 9.00 to 11.00 |
| CDATCQFRKAIDDCDRQAHHSNVPGSVFKACMKQKKKEWKANN (disulfide 1-5, 14-31) [compound 154] | 9.00 to 11.00 | 9.00 to 11.00 |
| CDATCQFRKAIDDCDRQAYHSNVPGSVFKACMKQKKKEWKAG-NH2 (disulfide 1-5, 14-31) [compound 144] | 9.00 to 11.00 | 9.00 to 11.00 |
| CDATCQFRKAIDDCFTWAWHSNVPGSVFKACMKQKKKEFKAG-NH2 (disulfide 1-5, 14-31) [compound 74] | 9.00 to 11.00 | 9.00 to 11.00 |
| CDATCQFRKAIDDCFTWSWHSNVPGSVFKACMKQKKKEFKAG-NH2 (disulfide 1-5, 14-31) [compound 135] | 9.00 to 11.00 | 9.00 to 11.00 |
| CDATCQFRKAIDDCFWLASHSNVPGSVWKACMKQKKKEFKAG-NH2 (disulfide 1-5, 14-31) [compound 119] | 9.00 to 11.00 | 9.00 to 11.00 |
| CDATCQFRKAIDDCFYQAWHSNVPGSVWKACMKFRFNVWKAG-NH2 (disulfide 1-5, 14-31) [compound 55] | 9.00 to 11.00 | 7.00 to 9.00 |
| CDATCQFRKAIDDCFYQAWHSNVPGSVWKACMKQKKKEFKAG-NH2 (disulfide 1-5, 14-31) [compound 139] | 9.00 to 11.00 | 9.00 to 11.00 |
| CDATCQFRKAIDDCHLLAWHANVPGSVFKACMKQKKKEFKAG-NH2 (disulfide 1-5, 14-31) [compound 140] | 9.00 to 11.00 | 9.00 to 11.00 |
| CDATCQFRKAIDDCHLLAWHSNVPGSVFKACMKQKKKEFKAG-NH2 (disulfide 1-5, 14-31) [compound 76] | 9.00 to 11.00 | 9.00 to 11.00 |
| CDATCQFRKAIDDCIFWAAHSNVPGSVFKACMKQKKKEFKAG-NH2 (disulfide 1-5, 14-31) [compound 123] | 9.00 to 11.00 | 9.00 to 11.00 |
| CDATCQFRKAIDDCLWWSQHSNVPGSVFKACMKQKKKEFKAG-NH2 (disulfide 1-5, 14-31) [compound 117] | 9.00 to 11.00 | 9.00 to 11.00 |
| CDATCQFRKAIDDCLWYARHSNVPGSVFKACMKQKKKEFKAG-NH2 (disulfide 1-5, 14-31) [compound 120] | 9.00 to 11.00 | 9.00 to 11.00 |
| CDATCQFRKAIDDCMLFSWHSNVPGSVFKACMKQKKKEFKAG-NH2 (disulfide 1-5, 14-31) [compound 131] | 9.00 to 11.00 | 9.00 to 11.00 |
| CDATCQFRKAIDDCMLLSWHSNVPGSVFKACMKQKKKEFKAG-NH2 (disulfide 1-5, 14-31) [compound 132] | > 11.00 | 9.00 to 11.00 |
| CDATCQFRKAIDDCMWFAWHSNVPGSVFKACMKQKKKEFKAG-NH2 (disulfide 1-5, 14-31) [compound 122] | 9.00 to 11.00 | 9.00 to 11.00 |
| CDATCQFRKAIDDCMWYSRHSNVPGSVFKACMKQKKKEFKAG-NH2 (disulfide 1-5, 14-31) [compound 121] | 9.00 to 11.00 | 9.00 to 11.00 |
| CDATCQFRKAIDDCQKQAHHSNVPGSVFKACLKQKKKEFKAG-NH2 (disulfide 1-5, 14-31) [compound 143] | 9.00 to 11.00 | 9.00 to 11.00 |
| CDATCQFRKAIDDCQKQAHHSNVPGSVFKACLLQKKKEFKAG-NH2 (disulfide 1-5, 14-31) [compound 100] | 7.00 to 9.00 | 7.00 to 9.00 |
| CDATCQFRKAIDDCQKQAHHSNVPGSVFKACLVQKKKEFKAG-NH2 (disulfide 1-5, 14-31) [compound 101] | 7.00 to 9.00 | 7.00 to 9.00 |
| CDATCQFRKAIDDCQKQAHHSNVPGSVFKACMKFRFNVWKAG-NH2 (disulfide 1-5, 14-31) [compound 127] | 9.00 to 11.00 | 9.00 to 11.00 |
| CDATCQFRKAIDDCQKQAHHSNVPGSVFKACMKFRRFLWKAG-NH2 (disulfide 1-5, 14-31) [compound 128] | 9.00 to 11.00 | 9.00 to 11.00 |
| CDATCQFRKAIDDCQKQAHHSNVPGSVFKACMKFRRTLWKAG-NH2 (disulfide 1-5, 14-31) [compound 89] | 9.00 to 11.00 | 7.00 to 9.00 |

| Substance | pIC50 (rat PAC1 receptor) | pIC50 (human PAC1 receptor) |
| --- | --- | --- |
| CDATCQFRKAIDDCQKQAHHSNVPGSVFKACMKQKKKEFKA-NH2 (disulfide 1-5, 14-31) [compound 214] | 9.00 to 11.00 | 7.00 to 9.00 |
| CDATCQFRKAIDDCQKQAHHSNVPGSVFKACMKQKKKEFKAGHHHHHH (disulfide 1-5, 14-31) [compound 160] | 9.00 to 11.00 | 7.00 to 9.00 |
| CDATCQFRKAIDDCQKQAHHSNVPGSVFKACMKQKKKEFKAGQ (disulfide 1-5, 14-31) [compound 174] | 9.00 to 11.00 | 7.00 to 9.00 |
| CDATCQFRKAIDDCQKQAHHSNVPGSVFKACMKQKKKEFKAGW (disulfide 1-5, 14-31) [compound 145] | 9.00 to 11.00 | 9.00 to 11.00 |
| CDATCQFRKAIDDCQKQAHHSNVPGSVFKACMKQKKKEFKAH (disulfide 1-5, 14-31) [compound 153] | 9.00 to 11.00 | 7.00 to 9.00 |
| CDATCQFRKAIDDCQKQAHHSNVPGSVFKACMKQKKKEFKAQ (disulfide 1-5, 14-31) [compound 96] | 9.00 to 11.00 | 7.00 to 9.00 |
| CDATCQFRKAIDDCQKQAHHSNVPGSVFKACMKQKKKEFKAR (disulfide 1-5, 14-31) [compound 68] | 9.00 to 11.00 | 9.00 to 11.00 |
| CDATCQFRKAIDDCQKQAHHSNVPGSVFKACMKQKKKEFKAW (disulfide 1-5, 14-31) [compound 95] | 7.00 to 9.00 | 7.00 to 9.00 |
| CDATCQFRKAIDDCQKQAHHSNVPGSVFKACMKQRKKRWLAG-NH2 (disulfide 1-5, 14-31) [compound 126] | 9.00 to 11.00 | 9.00 to 11.00 |
| CDATCQFRKAIDDCQKQAHHSNVPGSVFKACMLQKKKEFKAG-NH2 (disulfide 1-5, 14-31) [compound 103] | 9.00 to 11.00 | 7.00 to 9.00 |
| CDATCQFRKAIDDCQKQAHHSNVPGSVFKACMVQKKKEFKAG-NH2 (disulfide 1-5, 14-31) [compound 102] | 9.00 to 11.00 | 7.00 to 9.00 |
| CDATCQFRKAIDDCQKQAHHSNVPGSVFKACVKQKKKEFKAG-NH2 (disulfide 1-5, 14-31) [compound 142] | 7.00 to 9.00 | 7.00 to 9.00 |
| CDATCQFRKAIDDCQKQAHHSNVPGSVFKACVLQKKKEFKAG-NH2 (disulfide 1-5, 14-31) [compound 93] | 7.00 to 9.00 | 7.00 to 9.00 |
| CDATCQFRKAIDDCQKQAHHSNVPGSVFKLCMKQKKKEFKAG-NH2 (disulfide 1-5, 14-31) [compound 226] | 9.00 to 11.00 | 9.00 to 11.00 |
| CDATCQFRKAIDDCQKQAHHSNVPGSVFKTCMKQKKKEFKAG-NH2 (disulfide 1-5, 14-31) [compound 146] | 9.00 to 11.00 | 9.00 to 11.00 |
| CDATCQFRKAIDDCQKQAHHSNVPGSVFKVCMKQKKKEFKAG-NH2 (disulfide 1-5, 14-31) [compound 211] | 9.00 to 11.00 | 7.00 to 9.00 |
| CDATCQFRKAIDDCQKQAYHSNVPGNSVFKECMKQKKKEFK-NH2 (disulfide 1-5, 14-32) [compound 306] | 7.00 to 9.00 | 7.00 to 9.00 |
| CDATCQFRKAIDDCQRQAHHSNVPGNSVFKECMKQKKKEFK-NH2 (disulfide 1-5, 14-32) [compound 288] | 7.00 to 9.00 | 7.00 to 9.00 |
| CDATCQFRKAIDDCQ[Pra]QAHHSNVPGSVFKACMKQKKKEFKAG-NH2 (disulfide 1-5, 14-31) [compound 33] | 9.00 to 11.00 | 7.00 to 9.00 |
| CDATCQFRKAIDDCSWFAIHSNVPGSVFKACMKQKKKEFKAG-NH2 (disulfide 1-5, 14-31) [compound 115] | 9.00 to 11.00 | 9.00 to 11.00 |
| CDATCQFRKAIDDCVFWAAHSNVPGSVFKACMKQKKKEFKAG-NH2 (disulfide 1-5, 14-31) [compound 136] | 9.00 to 11.00 | 9.00 to 11.00 |
| CDATCQFRKAIDDCVKQAHHSNVPGSVFKACMKQKKKEFKAGH (disulfide 1-5, 14-31) [SEQ ID NO 94] | 9.00 to 11.00 | 9.00 to 11.00 |
| CDATCQFRKAIDDCVKQAHHSNVPGSVFKACMKQKKKEFKAGY (disulfide 1-5, 14-31) [compound 48] | 9.00 to 11.00 | 9.00 to 11.00 |
| CDATCQFRKAIDDCVRQAHHSNVPGSVFKACMKQKKKEWKAG (disulfide 1-5, 14-31) [compound 82] | 9.00 to 11.00 | 9.00 to 11.00 |
